Key:
[1] = system: lymphocytes which secrete antibodies (PFC); experiment: Hemolysis plaque (PFC) test of Jerne and Nordin in SRBC-immunized mice; format: in vivo, C3H/HeNCr1Br inbred male mice; settings: 1 ng of peptide orally 2 hours after SRBC i.v., spleen lymphocytes after 4 days, IgM PFC
Description: Specifically, hemolysis plates (PFC) were used for the test, which was conducted by the method described by Jerne and Nordin. The test was carried out by intravenously administering to C3H/HeNCr1Br inbred male mice (Calco-Italia) of 10-12 weeks and about 25 g body weight an apyrogenic saline solution (0.2 ml) containing 1-2×10^8 red blood cells from sheep (SRBC). After two hours, groups each containing 3 mice were treated orally (intragastric tube) with 0.2 ml of saline solution (control) or with 0.2 ml of saline solution containing 1 ng of peptide. After 4 days the mice were killed and the spleen withdrawn and dissociated mechanically to separate the lymphocytes. The thus isolated lymphocytes were washed with minimum essential medium (MEM) (3×15 ml) containing Earle's salts and then resuspended in the same medium (1 ml) at a final concentration of 150,000 cells. Each cell suspension (0.1 ml) was then diluted 1:100 with MEM, 100 μl of each dilution being doubly added to microplate wells containing 25 μl of MEM, 25 μl of a 10% solution of SRBC antigens and 25 μl of guinea pig complement at a final dilution of 1:64. The entire suspension was immediately transferred by capillarity from each well to superimposed slides. […]
At the end of this period the direct hemolysis plaques indicating the number of lymphocytes which secrete antibodies (PFC) are counted by a light contrast viewer.

in vitro = settings: human, heparinized human plasma
[2] = Stability towards enzymatic hydrolysis in heparinized human plasma; settings: 37° C., about 30 nmoles/ml of plasma
[3] = action of various proteases; cited from earlier work

| half-life (in vitro) | Stability towards enzymatic hydrolysis in human plasma (t/2 in minutes) [2] | Compound | Plaque formation % control [1] | t1/2 in the plasma [3] |
| --- | --- | --- | --- | --- |
| 22 min | 22 min | CC(C)[C@H](NC(=O)[C@H](CC(=O)O)NC(=O)C(CCCCN)C(=O)N[C@@H](N)CCCNC(=N)N)C(=O)N[C@@H](Cc1ccc(O)cc1)C(=O)O (some centres unmarked) | 112 % control | – |
| > 300 min | > 300 min | CC(C)C(C(=O)N[C@H](CC(=O)O)NC(=O)C(CCCCN)C(=O)N[C@@H](N)CCCNC(=N)N)C(=O)N[C@@H](Cc1ccc(O)cc1)C(=O)O (some centres unmarked) [Example 1] | – | – |

| Compound | half-life (in vitro) | Stability towards enzymatic hydrolysis in human plasma (t/2 in minutes) [2] | Plaque formation % control [1] | t1/2 in the plasma [3] |
| --- | --- | --- | --- | --- |
| H-RKDVY-OH [TP5, H-Arg-Lys-Asp-Val-Tyr-OH] | – | ≈ 1.5 minutes | 104 % control | 1.5 min |
